According to ChEMBL document CHEMBL1144683, “Design, synthesis and antiproliferative properties of oligomers with chromophore units linked by amide backbones” (Bioorg Med Chem Lett, 2008):
The source made the active and inactive calls. No cut-off for these calls is given here.

What was measured:
[1] = Antiproliferative activity against mouse NIH-3T3 cells by MTT assay; type: cell-based, NIH3T3; conditions: for IC50: Mus musculus, NIH3T3; for Activity: mouse, nih3t3
[2] = system: Jurkat; test: Antiproliferative activity against human Jurkat E6-1 cells by MTT assay; type: functional, cell-based
[3] = (§1) Antiproliferative activity against human GLC-4S cells by MTT assay; type: functional, cell-based
[4] = system: GLC-4S; test: as §1; type: functional, cell-based

## CC(=O)N[C@H]1C[C@@H](C(=O)N[C@H]2C[C@@H](C(=O)N[C@H]3C[C@@H](C(N)=O)N(C(=O)CNC(=O)c4c5ccccc5nc5c4[nH]c4ccccc45)C3)N(C(=O)CNC(=O)c3c4ccccc4nc4c3[nH]c3ccccc34)C2)N(C(=O)CNC(=O)c2c3ccccc3nc3ccccc23)C1
[1]
  IC50: 227 µM
[2]
  IC50: 103 µM
[3]
  IC50: 151 µM

## CC(=O)N[C@H]1C[C@@H](C(=O)N[C@H]2C[C@@H](C(=O)N[C@H]3C[C@@H](C(N)=O)N(C(=O)CNC(=O)c4c5ccccc5nc5c4[nH]c4ccccc45)C3)N(C(=O)CNC(=O)c3c4ccccc4nc4ccccc34)C2)N(C(=O)CNC(=O)c2c3ccccc3nc3ccccc23)C1
[1]
  IC50: 426 µM
[2]
  IC50: 86 µM
[3]
  IC50: 174 µM

## CC(=O)N[C@H]1C[C@@H](C(=O)N[C@H]2C[C@@H](C(N)=O)N(C(=O)CNC(=O)c3c4ccccc4nc4ccccc34)C2)N(C(=O)CNC(=O)c2c3ccccc3nc3ccccc23)C1
[1]
  Activity: Not Active
[2]
  IC50: 149 µM
[3]
  IC50: 135 µM

## CC(=O)N[C@H]1C[C@@H](C(=O)N[C@H]2C[C@@H](C(=O)N[C@H]3C[C@@H](C(N)=O)N(C(=O)CNC(=O)c4c5ccccc5nc5ccccc45)C3)N(C(=O)CNC(=O)c3c4ccccc4nc4c3[nH]c3ccccc34)C2)N(C(=O)CNC(=O)c2c3ccccc3nc3ccccc23)C1
[1]
  Activity: Not Active
[2]
  IC50: 87 µM
[3]
  IC50: 91 µM

## COC(=O)CNC(=O)c1c2ccccc2nc2ccccc12
[1]
  Activity: Not Active
[2]
  Activity: inactive
[4]
  Activity: inactive

## COC(=O)CNC(=O)c1c2ccccc2nc2c1[nH]c1ccccc12
[1]
  Activity: Not Active
[2]
  IC50: 8 µM
[4]
  Activity: inactive

## CC(=O)N[C@H]1C[C@@H](C(=O)N[C@H]2C[C@@H](C(N)=O)N(C(=O)CNC(=O)c3c4ccccc4nc4c3[nH]c3ccccc34)C2)N(C(=O)CNC(=O)c2c3ccccc3nc3c2[nH]c2ccccc23)C1
[1]
  Activity: Not Active
[2]
  IC50: 37 µM
[3]
  IC50: 54 µM

## CC(=O)N[C@H]1C[C@@H](C(=O)N[C@H]2C[C@@H](C(N)=O)N(C(=O)CNC(=O)c3c4ccccc4nc4c3[nH]c3ccccc34)C2)N(C(=O)CNC(=O)c2c3ccccc3nc3ccccc23)C1
[1]
  IC50: 376 µM
[2]
  IC50: 92 µM
[3]
  IC50: 125 µM

## O=C(O)CNC(=O)c1c2ccccc2nc2c1[nH]c1ccccc12
[1]
  Activity: Not Active
[2]
  IC50: 12 µM
[4]
  Activity: inactive

## CC(=O)N[C@H]1C[C@@H](C(=O)N[C@H]2C[C@@H](C(=O)N[C@H]3C[C@@H](C(N)=O)N(C(=O)CNC(=O)c4c5ccccc5nc5ccccc45)C3)N(C(=O)CNC(=O)c3c4ccccc4nc4ccccc34)C2)N(C(=O)CNC(=O)c2c3ccccc3nc3c2[nH]c2ccccc23)C1
[1]
  IC50: 357 µM
[2]
  IC50: 129 µM
[3]
  IC50: 169 µM

## O=C(O)CNC(=O)c1c2ccccc2nc2ccccc12
[1]
  Activity: Not Active
[2]
  Activity: inactive
[4]
  Activity: inactive

## CC(=O)N[C@H]1C[C@@H](C(=O)N[C@H]2C[C@@H](C(N)=O)N(C(=O)CNC(=O)c3c4ccccc4nc4ccccc34)C2)N(C(=O)CNC(=O)c2c3ccccc3nc3c2[nH]c2ccccc23)C1
[1]
  Activity: Not Active
[2]
  IC50: 120 µM
[3]
  IC50: 165 µM

## CC(=O)N[C@H]1C[C@@H](C(=O)N[C@H]2C[C@@H](C(=O)N[C@H]3C[C@@H](C(N)=O)N(C(=O)CNC(=O)c4c5ccccc5nc5c4[nH]c4ccccc45)C3)N(C(=O)CNC(=O)c3c4ccccc4nc4ccccc34)C2)N(C(=O)CNC(=O)c2c3ccccc3nc3c2[nH]c2ccccc23)C1
[1]
  IC50: 263 µM
[2]
  IC50: 112 µM
[3]
  IC50: 82 µM

## CC(=O)N[C@H]1C[C@@H](C(=O)NC2C[C@@H](C(=O)NC3C[C@@H](C(N)=O)N(C(=O)CNC(=O)c4c5ccccc5nc5ccccc45)C3)N(C(=O)CNC(=O)c3c4ccccc4nc4ccccc34)C2)N(C(=O)CNC(=O)c2c3ccccc3nc3ccccc23)C1 (some centres not stated)
[1]
  Activity: Not Active
[2]
  Activity: inactive
[3]
  IC50: 134 µM
